Results as given in ChEMBL document CHEMBL1201862, “PubChem BioAssay data set” (2004).
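Cells were grown in 96-well plates and exposed to each compound for 48 hours at five concentrations; endpoints were interpolated linearly between bracketing concentrations, or set to the highest concentration if not reached. Here, GI50 denotes the concentration required for 50% inhibition of growth.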 Calls of active or inactive are those of the source. Rule as the data show it: active = GI50 up to about 1.1 µM and inactive = higher.

Columns and labels:
Experiment in all cases: NCI anticancer screen, dose series, 48 h
A498 = tested on: A498
A549 = tested on: A549
ACHN = tested on: ACHN
CAKI-1 = tested on: CAKI-1
CCRF-CEM = tested on: CCRF-CEM
COLO 205 = tested on: COLO 205
DLD-1 = tested on: DLD-1
DMS-114 = tested on: DMS-114
DMS-273 = tested on: DMS-273
EKVX = tested on: EKVX
HCC 2998 = tested on: HCC 2998
HCT-116 = tested on: HCT-116
HCT-15 = tested on: HCT-15
HL-60 = tested on: HL-60
HOP-18 = tested on: HOP-18
HOP-62 = tested on: HOP-62
HOP-92 = tested on: HOP-92
HT-29 = tested on: HT-29
IGROV-1 = tested on: IGROV-1
K562 = tested on: K562
KM-20L2 = tested on: KM-20L2
KM12 = tested on: KM12
LOX IMVI = tested on: LOX IMVI
LXFL 529 = tested on: LXFL 529
M14 = tested on: M14
MOLT-4 = tested on: MOLT-4
Malme-3M = tested on: Malme-3M
NCI-H226 = tested on: NCI-H226
NCI-H23 = tested on: NCI-H23
NCI-H460 = tested on: NCI-H460
NCI-H522 = tested on: NCI-H522
OVCAR-3 = tested on: OVCAR-3
OVCAR-4 = tested on: OVCAR-4
OVCAR-5 = tested on: OVCAR-5
OVCAR-8 = tested on: OVCAR-8
RPMI-8226 = tested on: RPMI-8226
RXF 393 = tested on: RXF 393
RXF 631 = tested on: RXF 631
SF-268 = tested on: SF-268
SF-295 = tested on: SF-295
SF-539 = tested on: SF-539
SK-MEL-28 = tested on: SK-MEL-28
SK-MEL-2 = tested on: SK-MEL-2
SK-MEL-5 = tested on: SK-MEL-5
SK-OV-3 = tested on: SK-OV-3
SN12C = tested on: SN12C
SNB-19 = tested on: SNB-19
SNB-75 = tested on: SNB-75
SR = tested on: SR
SW-620 = tested on: SW-620
TK-10 = tested on: TK-10
U-251 = tested on: U-251
UACC-257 = tested on: UACC-257
UACC-62 = tested on: UACC-62
UO-31 = tested on: UO-31
XF498 = tested on: XF498

With `Cc1cccc(C(C)C)c1NC(=O)CC1Sc2ccccc2NC1=O` (stereo unspecified) the GI50 (A498) was 72.4 µM (inactive), the GI50 (A549) was 87.3 µM (inactive) and the GI50 (ACHN) was > 100 µM (inactive). For the same compound, the GI50 (CAKI-1) was > 100 µM (inactive), the GI50 (CCRF-CEM) was > 100 µM (inactive) and the GI50 (COLO 205) was > 100 µM (inactive). For the same compound, the GI50 (DLD-1) was > 100 µM (inactive), the GI50 (DMS-114) was 23.4 µM (inactive) and the GI50 (DMS-273) was 45.8 µM (inactive). The GI50 (EKVX) was > 100 µM (inactive), the GI50 (HCC 2998) was > 100 µM (inactive) and the GI50 (HCT-116) was 55.6 µM (inactive). The GI50 (HCT-15) was 70.1 µM, the GI50 (HL-60) was 46.9 µM (inactive) and the GI50 (HOP-18) was > 100 µM (inactive). For the same compound, the GI50 (HOP-62) was > 100 µM (inactive), the GI50 (HOP-92) was 37.8 µM (inactive) and the GI50 (HT-29) was 48.9 µM (inactive). For the same compound, the GI50 (IGROV-1) was > 100 µM (inactive), the GI50 (K562) was 33.1 µM (inactive) and the GI50 (KM-20L2) was > 100 µM (inactive). For the same compound, the GI50 (KM12) was > 100 µM (inactive), the GI50 (LOX IMVI) was 94.4 µM (inactive) and the GI50 (LXFL 529) was 79.1 µM (inactive). The GI50 (M14) was 50.1 µM (inactive), the GI50 (MOLT-4) was 20.5 µM (inactive) and the GI50 (Malme-3M) was 31.8 µM (inactive). The GI50 (NCI-H226) was 77.8 µM (inactive), the GI50 (NCI-H23) was > 100 µM (inactive) and the GI50 (NCI-H460) was > 100 µM (inactive). The GI50 (NCI-H522) was 78.7 µM (inactive), the GI50 (OVCAR-3) was > 100 µM (inactive) and the GI50 (OVCAR-4) was > 100 µM (inactive). For the same compound, the GI50 (OVCAR-5) was > 100 µM (inactive), the GI50 (OVCAR-8) was > 100 µM (inactive) and the GI50 (RPMI-8226) was 57.4 µM (inactive). For the same compound, the GI50 (RXF 393) was 87.3 µM (inactive), the GI50 (RXF 631) was 85.1 µM (inactive) and the GI50 (SF-268) was 63 µM (inactive). The GI50 (SF-295) was 40.2 µM (inactive), the GI50 (SF-539) was > 100 µM (inactive) and the GI50 (SK-MEL-28) was 83.6 µM (inactive). The GI50 (SK-MEL-2) was 42.5 µM (inactive), the GI50 (SK-MEL-5) was 35.4 µM (inactive) and the GI50 (SK-OV-3) was > 100 µM (inactive). The GI50 (SN12C) was > 100 µM (inactive), the GI50 (SNB-19) was > 100 µM (inactive) and the GI50 (SNB-75) was 60.3 µM (inactive). The GI50 (SR) was 41 µM (inactive), the GI50 (SW-620) was 76.4 µM (inactive) and the GI50 (TK-10) was > 100 µM (inactive). For the same compound, the GI50 (U-251) was > 100 µM (inactive), the GI50 (UACC-257) was > 100 µM (inactive) and the GI50 (UACC-62) was 44.4 µM (inactive). For the same compound, the GI50 (UO-31) was 74.5 µM (inactive) and the GI50 (XF498) was > 100 µM (inactive).
